ChEMBL document CHEMBL1201862, “PubChem BioAssay data set” (2004)
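Dose response: 5 concentrations. Exposure: 48 h. Format: 96-well plates. Endpoint: linear interpolation; highest concentration if not reached. At the GI50, growth is halved.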 Calls of active or inactive are those of the source. Rule as the data show it: active = GI50 up to about 1.1 µM and inactive = higher.

How the values were obtained:
Assay in all cases: NCI tumour cell line growth inhibition, 48 h
[1] = tested on: OVCAR-4
[2] = tested on: 786-0
[3] = tested on: LOX IMVI
[4] = tested on: HOP-62
[5] = tested on: SK-OV-3
[6] = tested on: OVCAR-3
[7] = tested on: K562
[8] = tested on: UO-31
[9] = tested on: HT-29
[10] = tested on: SNB-75
[11] = tested on: MDA-N
[12] = tested on: OVCAR-8
[13] = tested on: SK-MEL-2
[14] = tested on: M14
[15] = tested on: UACC-62
[16] = tested on: HCT-116
[17] = tested on: HL-60
[18] = tested on: MCF7
[19] = tested on: OVCAR-5
[20] = tested on: SW-620

Measured: GI50

N/C(=N/O)c1cn(C2OC(CO)C(O)C2O)c2ncnc(NO)c12 (stereo not given)
active: [1] 265 nM | [2] 55.6 nM | [3] 123 nM | [4] 366 nM | [5] < 20 nM | [6] 255 nM | [7] 184 nM | [8] 84 nM | [9] 461 nM | [10] 222 nM | [11] 40.7 nM | [12] 242 nM | [13] < 13.1 nM | [14] 126 nM | [15] 362 nM | [16] 33.7 nM | [17] 166 nM | [18] 144 nM | [19] 656 nM | [20] 143 nM
